Measurements taken from patent US12648983B2 (U.S. NUTRACEUTICALS, INC., priority 2021, dated 2026).

Legend:
5α-Reductase Type 2 = biological target: T1, 5α-Reductase Type 2 (Homo sapiens, UniProt P31213); assay: inhibition of 5α-Reductase Type 2 enzyme (Inhibition Experiments 1 and 2); assay type: biochemical
T1 sequence (P31213 1-254): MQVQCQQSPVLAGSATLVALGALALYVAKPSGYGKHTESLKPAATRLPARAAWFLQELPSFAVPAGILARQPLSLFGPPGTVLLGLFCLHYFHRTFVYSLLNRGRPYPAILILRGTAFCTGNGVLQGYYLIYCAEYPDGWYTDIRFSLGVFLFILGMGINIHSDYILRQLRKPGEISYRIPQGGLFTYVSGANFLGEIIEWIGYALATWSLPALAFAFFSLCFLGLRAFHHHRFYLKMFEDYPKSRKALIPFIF
Text: (§1) The different free fatty acids of medium and long saturated chains and long unsaturated chains are shown, together with esterified fatty acids, oxidized fatty acids, fatty alcohols, phytosterols, and other components. The magnitude of the activity is designated by “none,” “moderate” or “very active” (FIG. 3). The various constituents shown in the table of FIG. 2 are also shown and listed as free fatty acid molecules with: a) medium, saturated chains, b) long, saturated chains, and c) long unsaturated chains. There are esterified fatty acids, oxidized fatty acids, and fatty alcohols. These tables support other evidence that the five active free fatty acids for prostate and hair health are lauric, myristic, oleic, linoleic and linolenic free fatty acids.
Data are shown in the graphs and bar charts of FIGS. 5 and 6 where data are reported as the effectiveness to inhibit enzyme activity (IC50). […]
Inhibition Experiment 2 shown in FIG. 6 determined the possible impact of Permixon® product matrix (PEG) on an in vitro assay and the pegylated and conventional ultra-high purity supercritical CO2 extract having the PEG matrix (U4602-PEG) was compared to the commercially available Permixon® and the conventional unpegylated product (U4602) for their ability to inhibit the 5α-Reductase 2 enzyme. […]

hair growth = conditions: normal shaved mice, after about 20 days; cited from earlier work
5α-Reductase Type 1 = biological target: T2, 5α-Reductase Type 1 (Homo sapiens, UniProt P18405); assay: inhibition of 5α-Reductase Type 1 enzyme; assay type: biochemical
T2 sequence (P18405 1-259): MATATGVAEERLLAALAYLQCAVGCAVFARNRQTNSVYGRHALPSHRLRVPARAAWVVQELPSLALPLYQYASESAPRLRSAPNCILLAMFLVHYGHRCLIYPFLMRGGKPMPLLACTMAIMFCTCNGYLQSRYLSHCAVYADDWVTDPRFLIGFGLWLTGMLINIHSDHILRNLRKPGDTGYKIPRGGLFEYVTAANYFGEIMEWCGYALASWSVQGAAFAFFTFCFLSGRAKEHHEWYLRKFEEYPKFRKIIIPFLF
Text: as §1
Reference is now made to FIGS. 7B and 7C showing the use of a supercritical CO2 extracted LSESr and Permixon®.

androgenic alopecia = conditions: 1 milligram per day, 24 months, 100 men; cited from earlier work

SMILES | effectiveness for 5α-Reductase-2 (in words) (5α-Reductase Type 2) | hair growth (hair growth) | effectiveness for 5α-Reductase-1 (in words) (5α-Reductase Type 1) | men who noted an improvement (androgenic alopecia)
CCCCC/C=C\C/C=C\CCCCCCCC(=O)O [linoleic acid] | beneficial for both | about 100% |  | 
CCCCCCCC/C=C\CCCCCCCC(=O)O [oleic acid] | not as much |  | especially effective | 
CC(C)(C)NC(=O)[C@H]1CC[C@H]2[C@@H]3CC[C@H]4NC(=O)C=C[C@]4(C)[C@H]3CC[C@]12C [finasteride] |  |  |  | 68%
